Reference: patent US10144742B2 (Millennium Pharmaceuticals, Inc., priority 2014, dated 2018)

Columns and labels:
hNAMPT protein = hNAMPT protein (Homo sapiens (Human), UniProt P43490); experiment: NAMPT enzyme assay (TR-FRET/HTRF, BodiPY ligand, anti 6His-Tb); format: binding; settings: for IC50: NAMPT IC50 range class, read-out: IC50; for inhibition at 1 µM: compound concentration 1 μM, read-out: Percent Inhibition
Source text: As discussed above, the invention provides compounds that are useful as inhibitors of the enzyme NAMPT. The NAMPT inhibition of a compound of the invention can be measured using a variety of methods known in the art. For example, the ability of a compound of the invention to inhibit NAMPT enzyme activity can be measured using a homogeneous time resolved fluorescence (HTRF) assay using hNAMPT protein and anti 6His-Tb in buffer treated with a compound of the invention (or control e.g., DMSO) and BodiPY ligand. The TR-FRET signal can be measured using a high throughput microplate reader (e.g., Pherastar). Excitation can be carried out at 320 nm. The percent inhibition value at a single concentration of compound of the invention can be calculated relative to a control treated sample. A concentration response curve can be generated for each compound of the invention and the curve fitted to generate an IC50 value. […] Cat. No. […] To this solution is added test compounds or vehicle control (DMSO) and BodiPY ligand (structure below). The plate is shaken for 1-2 min, sealed and incubated for 1 hour at rt in the dark. The TR-FRET signal is measured using BMG Pherastar (Lanthascreen protocol on BMG Pherastar). Excitation was carried out at 320 nm, and the ratio of emission of BodiPY (520 nm) to terbium (486 nm) was determined. Concentration response curves are generated by calculating the excitation increase in test compound-treated samples relative to DMSO-treated controls. For the assay method described above, test compound percent inhibition values at a single concentration are calculated relative to control (DMSO) treated samples. Compound concentration response curves are fitted to generate IC50 values from those curves. One skilled in the art will appreciate that these values generated either as percentage inhibition at a single concentration or IC50 values are subject to experimental variation.

PC3 cells = experiment: PC3 growth inhibition (Cell-titer glo, 72 hours); format: cell-based; settings: Homo sapiens, PC-3, PC3 cells, 72 hours, Cell-titer glo, read-out: Percent Inhibition (PC3 growth inhibition); for inhibition at 1 µM: compound concentration 1 μM; for inhibition at 1.667 µM: compound concentration 1.667 μM
Method: The ability of a compound of the invention to inhibit the growth of cells can be measured using a variety of methods known in the art. For example, the ability of a compound of the invention to inhibit the growth of PC3 cells can be measured. PC3 cells can be plated and incubated overnight under CO2. For each measurement, a compound of the invention (or vehicle e.g., DMSO) can be diluted with AIM serum free medium and added to the cell plate. The cell plate can then be incubated for 72 h under CO2. Cell-titer glo solution can be added and the plates can be incubated protected from light and the amount of luminescences can be measured. Concentration response curves can be generated by calculating the luminescence increase in test compound treated samples relative to DMSO-treated controls. Percentage remaining viability values at a single concentration can be measured. Growth inhibition (GI50) or cell viability (LD50) values can be determined from those curves.
Compounds of the invention were assayed to measure PC3 growth inhibition at a concentration of 1 μM or 1.667 μM (Table 3). To measure PC3 growth inhibition, PC3 cells that were maintained in PRMI1640 growth medium (Life Technologies; Cat. No. 11875) at 37° C. under 5% CO2 are trypsinized and diluted at a density of 8×10^4 cells/ml, 25 ul per well of cells and plated in 384-well black tissue culture plate. The cells are incubated overnight at 37° C. under 5% CO2. For each measurement, a test compounds or vehicle control (DMSO) are diluted with AIM serum free medium and added to the cell plate. Incubate for 72 hours at 37° C. under 5% CO2. 25 μl Cell-titer glo solution (Promega; Cat. No. G8462) is added and the cell plates are incubated for 10 minutes protected from light. The luminescence is measured. Concentration response curves are generated by calculating the luminescence increase in test compound-treated samples relative to DMSO-treated controls. Percentage remaining viability values at a single concentration, growth inhibition (GI50) or cell viability (LD50) values are determined from those curves. One skilled in the art will appreciate that these values are subject to experimental variation.

hNAMPT protein, sequence (P43490 whole entry): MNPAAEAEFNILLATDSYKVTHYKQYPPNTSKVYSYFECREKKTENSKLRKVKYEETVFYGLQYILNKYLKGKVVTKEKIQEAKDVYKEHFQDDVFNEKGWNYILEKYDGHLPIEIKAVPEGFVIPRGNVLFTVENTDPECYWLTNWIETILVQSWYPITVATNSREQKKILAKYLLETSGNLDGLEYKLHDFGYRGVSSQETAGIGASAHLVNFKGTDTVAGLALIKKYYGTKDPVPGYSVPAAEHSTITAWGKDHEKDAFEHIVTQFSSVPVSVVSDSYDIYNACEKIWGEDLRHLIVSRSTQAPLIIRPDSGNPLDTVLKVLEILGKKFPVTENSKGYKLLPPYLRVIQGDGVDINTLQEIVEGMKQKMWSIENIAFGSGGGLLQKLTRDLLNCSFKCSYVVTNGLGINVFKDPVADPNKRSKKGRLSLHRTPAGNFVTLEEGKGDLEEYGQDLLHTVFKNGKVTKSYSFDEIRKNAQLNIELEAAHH

## NCc1nc2ccc(C(=O)NCCCn3ccnc3)cc2nc1-c1ccccc1 [Compound I-10, 2-(aminomethyl)-N-[3-(1H-imidazol-1-yl)propyl]-3-phenylquinoxaline-6-carboxamide]
hNAMPT protein
  IC50: 2000 to 10000 nM
  inhibition at 1 µM: 23%
PC3 cells
  inhibition at 1 µM: 99%

## O=C(NCCCn1ccnc1)c1ccc2nc(N3Cc4ccccc4C3)c(-c3ccccc3)nc2c1 [Compound I-11, 2-(1,3-dihydro-2H-isoindol-2-yl)-N-[3-(1H-imidazol-1-yl)propyl]-3-phenylquinoxaline-6-carboxamide]
hNAMPT protein
  IC50: 100 to 500 nM
  inhibition at 1 µM: 85%
PC3 cells
  inhibition at 1 µM: -7%

## COc1cccc(-c2nc3cc(C(=O)NCCCc4ncc[nH]4)ccc3nc2N2CCC(O)CC2)c1 [Compound I-12, 2-(4-hydroxypiperidin-1-yl)-N-[3-(1H-imidazol-2-yl)propyl]-3-(3-methoxyphenyl)quinoxaline-6-carboxamide]
hNAMPT protein
  IC50: < 100 nM
  inhibition at 1 µM: > 99%
PC3 cells
  inhibition at 1.667 µM: 2%

## COc1ccccc1-c1nc2ccc(C(=O)NCCCn3ccnc3)cc2nc1-c1ccccc1 [Compound I-13, N-[3-(1H-imidazol-1-yl)propyl]-2-(2-methoxyphenyl)-3-phenylquinoxaline-6-carboxamide]
hNAMPT protein
  IC50: 100 to 500 nM
  inhibition at 1 µM: 69%
PC3 cells
  inhibition at 1 µM: -6%

## O=C(NCCCn1ccnc1)c1ccc2nc(-c3ccccc3)c(N3CCS(=O)(=O)CC3)nc2c1 [Compound I-14, 3-(1,1-dioxidothiomorpholin-4-yl)-N-[3-(1H-imidazol-1-yl)propyl]-2-phenylquinoxaline-6-carboxamide]
hNAMPT protein
  IC50: 2000 to 10000 nM
  inhibition at 1 µM: 17%
PC3 cells
  inhibition at 1 µM: -3%

## O=C(NCCCn1ccnc1)c1ccc2nc(-c3ccccc3)c(N3CCC4(COC4)C3)nc2c1 [Compound I-15, N-[3-(1H-imidazol-1-yl)propyl]-3-(2-oxa-6-azaspiro[3.4]oct-6-yl)-2-phenylquinoxaline-6-carboxamide]
hNAMPT protein
  IC50: 2000 to 10000 nM
  inhibition at 1 µM: 15%
PC3 cells
  inhibition at 1 µM: -6%

## O=C(NCc1ccc2[nH]ncc2c1)c1ccc2nc(N3CCOCC3)c(-c3ccc(F)cc3)nc2c1 [Compound I-16, 3-(4-fluorophenyl)-N-(1H-indazol-5-ylmethyl)-2-(morpholin-4-yl)quinoxaline-6-carboxamide]
hNAMPT protein
  IC50: 100 to 500 nM
  inhibition at 1 µM: 84%
PC3 cells
  inhibition at 1.667 µM: 39%

## N#CC1CCN(c2nc3cc(C(=O)NCCCn4ccnc4)ccc3nc2-c2ccccc2)C1 (stereo not drawn) [Compound I-17, 3-(3-cyanopyrrolidin-1-yl)-N-[3-(1H-imidazol-1-yl)propyl]-2-phenylquinoxaline-6-carboxamide]
hNAMPT protein
  IC50: 2000 to 10000 nM
  inhibition at 1 µM: 19%
PC3 cells
  inhibition at 1 µM: 4%

## O=C(NCCCc1ncc[nH]1)c1ccc2nc(N3CCC(N4CCOCC4)CC3)c(-c3ccccc3)nc2c1 [Compound I-18, N-[3-(1H-imidazol-2-yl)propyl]-2-[4-(morpholin-4-yl)piperidin-1-yl]-3-phenylquinoxaline-6-carboxamide]
hNAMPT protein
  IC50: < 100 nM
  inhibition at 1 µM: 100%
PC3 cells
  inhibition at 1.667 µM: 2%

## O=C(NCCCn1ccnc1)c1ccc2nc(-c3ccc(F)cc3)c(-c3ccc(F)cc3)nc2c1 [Compound I-19, 2,3-bis(4-fluorophenyl)-N-[3-(1H-imidazol-1-yl)propyl]quinoxaline-6-carboxamide]
hNAMPT protein
  IC50: 100 to 500 nM
  inhibition at 1 µM: 82%
PC3 cells
  inhibition at 1 µM: -1%

## O=C(NCCc1c[nH]cn1)c1ccc2nc(-c3ccc(F)cc3)c(-c3ccc(F)cc3)nc2c1 [Compound I-20, 2,3-bis(4-fluorophenyl)-N-[2-(1H-imidazol-4-yl)ethyl]quinoxaline-6-carboxamide]
hNAMPT protein
  IC50: 1000 to 2000 nM
  inhibition at 1 µM: 42%
PC3 cells
  inhibition at 1 µM: 111%

## Cn1cc2c(n1)CN(C(=O)c1ccc3nc(-c4ccc(F)cc4)c(-c4ccc(F)cc4)nc3c1)CC2 [Compound I-22, [2,3-bis(4-fluorophenyl)quinoxalin-6-yl](2-methyl-2,4,5,7-tetrahydro-6H-pyrazolo[3,4-c]pyridin-6-yl)methanone]
hNAMPT protein
  IC50: 1000 to 2000 nM
  inhibition at 1 µM: 41%
PC3 cells
  inhibition at 1 µM: 96%

## O=C(NCCCc1ncc[nH]1)c1ccc2nc(N3CCC(N4CCOCC4)CC3)c(-c3ccc(F)cc3)nc2c1 [Compound I-23, 3-(4-fluorophenyl)-N-[3-(1H-imidazol-2-yl)propyl]-2-[4-(morpholin-4-yl)piperidin-1-yl]quinoxaline-6-carboxamide]
hNAMPT protein
  IC50: < 100 nM
  inhibition at 1 µM: 100%
PC3 cells
  inhibition at 1.667 µM: 2%

## Cc1nc(C)c(-c2nc3ccc(C(=O)NCCCn4ccnc4)cc3nc2-c2ccccc2)s1 [Compound I-24, 2-(2,4-dimethyl-1,3-thiazol-5-yl)-N-[3-(1H-imidazol-1-yl)propyl]-3-phenylquinoxaline-6-carboxamide]
hNAMPT protein
  IC50: 100 to 500 nM
  inhibition at 1 µM: 88%
PC3 cells
  inhibition at 1 µM: -8%

## O=C(NCCCc1cccnc1)c1ccc2nc(N3CCC(O)CC3)c(-c3ccc(F)cc3)nc2c1 [Compound I-25, 3-(4-fluorophenyl)-2-(4-hydroxypiperidin-1-yl)-N-[3-(pyridin-3-yl)propyl]quinoxaline-6-carboxamide]
hNAMPT protein
  IC50: < 100 nM
  inhibition at 1 µM: 98%
PC3 cells
  inhibition at 1.667 µM: 2%

## Cc1nccn1CCNC(=O)c1ccc2nc(-c3ccc(F)cc3)c(-c3ccc(F)cc3)nc2c1 [Compound I-26, 2,3-bis(4-fluorophenyl)-N-[2-(2-methyl-1H-imidazol-1-yl)ethyl]quinoxaline-6-carboxamide]
hNAMPT protein
  IC50: 1000 to 2000 nM
  inhibition at 1 µM: 37%
PC3 cells
  inhibition at 1 µM: 99%

## CC(C)(C)OC(=O)NCC1CCN(C2CCN(c3nc4ccc(C(=O)NCCCn5ccnc5)cc4nc3-c3ccccc3)CC2)CC1 [Compound I-27, tert-butyl{[1′-(6-{[3-(1H-imidazol-1-yl)propyl]carbamoyl}-3-phenylquinoxalin-2-yl)-1,4′-bipiperidin-4-yl]methyl}carbamate]
hNAMPT protein
  IC50: < 100 nM
  inhibition at 1 µM: 102%
PC3 cells
  inhibition at 1 µM: -1%

## O=C(c1ccc2nc(-c3ccc(F)cc3)c(-c3ccc(F)cc3)nc2c1)N1CCn2nncc2C1 [Compound I-28, [2,3-bis(4-fluorophenyl)quinoxalin-6-yl](6,7-dihydro[1,2,3]triazolo[1,5-a]pyrazin-5(4H)-yl)methanone]
hNAMPT protein
  IC50: 2000 to 10000 nM
  inhibition at 1 µM: 19%
PC3 cells
  inhibition at 1 µM: 94%

## O=C(c1ccc2nc(-c3ccc(F)cc3)c(-c3ccc(F)cc3)nc2c1)N1CCC(c2cccnc2)C1 (stereo not drawn) [Compound I-29, [2,3-bis(4-fluorophenyl)quinoxalin-6-yl][3-(pyridin-3-yl)pyrrolidin-1-yl]methanone]
hNAMPT protein
  IC50: 2000 to 10000 nM
  inhibition at 1 µM: 36%
PC3 cells
  inhibition at 1 µM: 96%

## O=C(NCCCn1ccnc1)c1ccc2nc(N3CCC4(CC3)COC4)c(-c3ccccc3)nc2c1 [Compound I-30, N-[3-(1H-imidazol-1-yl)propyl]-2-(2-oxa-7-azaspiro[3.5]non-7-yl)-3-phenylquinoxaline-6-carboxamide]
hNAMPT protein
  IC50: 100 to 500 nM
  inhibition at 1 µM: 83%
PC3 cells
  inhibition at 1 µM: -7%

## CC1(C)CN(c2nc3ccc(C(=O)NCCCn4ccnc4)cc3nc2-c2ccccc2)CCO1 [Compound I-31, 2-(2,2-dimethylmorpholin-4-yl)-N-[3-(1H-imidazol-1-yl)propyl]-3-phenylquinoxaline-6-carboxamide]
hNAMPT protein
  IC50: < 100 nM
  inhibition at 1 µM: 89%
PC3 cells
  inhibition at 1 µM: -7%
